Data published in patent US20250062039A1, “ESTIMATION OF PHARMACOKINETIC (PK) PARAMETERS OF DRUG CANDIDATES USING UNIVERSAL PK PARAMETERS BOUNDS” (Tata Consultancy Services Limited, priority 2023, published 2025).
Like-named read-outs stand apart in the source and are kept apart here.

Experiments:
[1] = Three compartment PK model parameter estimation from etomidate PCT profile (64 bound combinations, MWDO + Nelder Mead); set-up: species or system humans
[2] = cited from earlier work; for Conc (plasma concentration): 18.3 mg intravenously, subject 60.9 kg
[3] = MWDO, Upper Bound 1 of Table 18
[4] = MWDO, Upper Bound 2 of Table 18
[5] = MWDO, Upper Bound 3 of Table 18
[6] = Nelder Mead, bound combination 1
[7] = Nelder Mead, bound combination 2
[8] = Nelder Mead, bound combination 3
[9] = best set over all 64 bound combinations

Compound: CCOC(=O)c1cncn1[C@H](C)c1ccccc1 [etomidate]
- A, Globally optimized Parameter 1 [1, 3]: 0.2958 µg/mL
- Alpha, Globally optimized Parameter 1 [1, 3]: 12.67 h⁻¹
- B, Globally optimized Parameter 1 [1, 3]: 0.1079 µg/mL
- Beta, Globally optimized Parameter 1 [1, 3]: 1.124 h⁻¹
- C, Globally optimized Parameter 1 [1, 3]: 0.02617 µg/mL
- Gamma, Globally optimized Parameter 1 [1, 3]: 0.1092 h⁻¹
- A, Globally optimized Parameter 2 [1, 4]: 0.2529 µg/mL
- Alpha, Globally optimized Parameter 2 [1, 4]: 10.44 h⁻¹
- B, Globally optimized Parameter 2 [1, 4]: 0.1149 µg/mL
- Beta, Globally optimized Parameter 2 [1, 4]: 0.351 h⁻¹
- C, Globally optimized Parameter 2 [1, 4]: 0.005408 µg/mL
- Gamma, Globally optimized Parameter 2 [1, 4]: 0.1074 h⁻¹
- A, Globally optimized Parameter 3 [1, 5]: 0.13 µg/mL
- Alpha, Globally optimized Parameter 3 [1, 5]: 5.539 h⁻¹
- B, Globally optimized Parameter 3 [1, 5]: 0.1089 µg/mL
- Beta, Globally optimized Parameter 3 [1, 5]: 0.3627 h⁻¹
- C, Globally optimized Parameter 3 [1, 5]: 0.005084 µg/mL
- Gamma, Globally optimized Parameter 3 [1, 5]: 0.0375 h⁻¹
- A, Locally Optimized parameter 1 [1, 6]: 0.3151 µg/mL
- Alpha, Locally Optimized parameter 1 [1, 6]: 11.49 h⁻¹
- B, Locally Optimized parameter 1 [1, 6]: 0.1076 µg/mL
- Beta, Locally Optimized parameter 1 [1, 6]: 0.8111 h⁻¹
- C, Locally Optimized parameter 1 [1, 6]: 0.01292 µg/mL
- Gamma, Locally Optimized parameter 1 [1, 6]: 0.03486 h⁻¹
- A, Locally Optimized parameter 2 [1, 7]: 0.3151 µg/mL
- Alpha, Locally Optimized parameter 2 [1, 7]: 11.49 h⁻¹
- B, Locally Optimized parameter 2 [1, 7]: 0.1076 µg/mL
- Beta, Locally Optimized parameter 2 [1, 7]: 0.8111 h⁻¹
- C, Locally Optimized parameter 2 [1, 7]: 0.01292 µg/mL
- Gamma, Locally Optimized parameter 2 [1, 7]: 0.03486 h⁻¹
- A, Locally Optimized parameter 3 [1, 8]: 0.3151 µg/mL
- Alpha, Locally Optimized parameter 3 [1, 8]: 11.49 h⁻¹
- B, Locally Optimized parameter 3 [1, 8]: 0.1076 µg/mL
- Beta, Locally Optimized parameter 3 [1, 8]: 0.8111 h⁻¹
- C, Locally Optimized parameter 3 [1, 8]: 0.01292 µg/mL
- Gamma, Locally Optimized parameter 3 [1, 8]: 0.03486 h⁻¹
- A, Best Parameter/Best locally optimized value [1, 9]: 0.3151 µg/mL
- A, Initial value/globally optimized value [1, 9]: 0.2703 µg/mL
- Alpha, Best Parameter/Best locally optimized value [1, 9]: 11.49 h⁻¹
- Alpha, Initial value/globally optimized value [1, 9]: 7.1437 h⁻¹
- B, Best Parameter/Best locally optimized value [1, 9]: 0.1076 µg/mL
- B, Initial value/globally optimized value [1, 9]: 0.07389 µg/mL
- Beta, Best Parameter/Best locally optimized value [1, 9]: 0.8111 h⁻¹
- Beta, Initial value/globally optimized value [1, 9]: 0.3665 h⁻¹
- C, Best Parameter/Best locally optimized value [1, 9]: 0.01292 µg/mL
- C, Initial value/globally optimized value [1, 9]: 0.01092 µg/mL
- Gamma, Best Parameter/Best locally optimized value [1, 9]: 0.03486 h⁻¹
- Gamma, Initial value/globally optimized value [1, 9]: 0.1479 h⁻¹
- Conc (plasma concentration) ([2]; Time 0.067 hr): 260 ng/mL
- Conc (plasma concentration) ([2]; Time 0.133 hr): 180 ng/mL
- Conc (plasma concentration) ([2]; Time 0.25 hr): 115 ng/mL
- Conc (plasma concentration) ([2]; Time 0.5 hr): 88 ng/mL
- Conc (plasma concentration) ([2]; Time 1 hr): 59.9 ng/mL
- Conc (plasma concentration) ([2]; Time 2 hr): 32.5 ng/mL
- Conc (plasma concentration) ([2]; Time 3 hr): 21.3 ng/mL
- Conc (plasma concentration) ([2]; Time 4 hr): 15.8 ng/mL
- Conc (plasma concentration) ([2]; Time 5 hr): 12.6 ng/mL
- Conc (plasma concentration) ([2]; Time 6 hr): 11.4 ng/mL
- Conc (plasma concentration) ([2]; Time 7 hr): 10.5 ng/mL
- Conc (plasma concentration) ([2]; Time 8 hr): 9.9 ng/mL
- Conc (plasma concentration) ([2]; Time 9 hr): 9.5 ng/mL
- Conc (plasma concentration) ([2]; Time 10 hr): 9.1 ng/mL
- A, Published parameter value ([2]; three compartment model): 0.297 µg/mL
- Alpha, Published parameter value ([2]; three compartment model): 12.02 h⁻¹
- B, Published parameter value ([2]; three compartment model): 0.117 µg/mL
- Beta, Published parameter value ([2]; three compartment model): 0.935 h⁻¹
- C, Published parameter value ([2]; three compartment model): 0.017 µg/mL
- Gamma, Published parameter value ([2]; three compartment model): 0.064 h⁻¹
